The record followed here is ChEMBL document CHEMBL4346699 (Eur J Med Chem, 2019).

The nature of data set [1]: AUC (0 to 7 hrs) in Sprague-Dawley rat at 1 mg/kg, iv by LC-MS/MS analysis. On the set-up: dose 1 mg/kg, time < 7 hr, route intravenous. The following applies: in vivo. The format is ADME, organism-based.
A short description of data set [2]: Clearance in Sprague-Dawley rat at 1 mg/kg, iv by LC-MS/MS analysis. The format is ADME, organism-based. The following applies: in vivo.
Data set [3] is described as follows: Volume of distribution at steady state in Sprague-Dawley rat at 1 mg/kg, iv by LC-MS/MS analysis. The format is ADME, organism-based. The following applies: in vivo, read-out: Vdss.
The nature of data set [4]: Half life in Sprague-Dawley rat at 1 mg/kg, iv by LC-MS/MS analysis. The format is ADME, organism-based. To be noted: in vivo.
The nature of data set [5]: AUC (0 to 7 hrs) in Sprague-Dawley rat at 5 mg/kg, po by LC-MS/MS analysis. Format: ADME, organism-based. On the set-up: dose 5 mg/kg, time < 7 hr, route oral. The following applies: in vivo.
Data set [6] is described as follows: Tmax in Sprague-Dawley rat at 5 mg/kg, po by LC-MS/MS analysis. The format is ADME, organism-based. The following applies: in vivo.
The nature of data set [7]: Oral bioavailability in Sprague-Dawley rat at 5 mg/kg by LC-MS/MS analysis. The format is ADME, organism-based. To be noted: in vivo.
Data set [8] in a line: Metabolic stability in human microsomes assessed as parent compound remaining after 0 mins. The format is ADME, Microsome. To be noted: read-out: Stability.
The nature of data set [9]: Metabolic stability in rat microsomes assessed as parent compound remaining after 0 mins. Format: ADME, Microsome. To be noted: read-out: Stability.
A short description of data set [10]: Metabolic stability in human microsomes assessed as parent compound remaining after 5 mins. The format is ADME, Microsome. To be noted: read-out: Stability.
Data set [11] in a line: Metabolic stability in rat microsomes assessed as parent compound remaining after 5 mins. Format: ADME, Microsome. To be noted: read-out: Stability.
Data set [12] is described as follows: Metabolic stability in human microsomes assessed as parent compound remaining after 15 mins. Format: ADME, Microsome. The following applies: read-out: Stability.
The nature of data set [13]: Metabolic stability in rat microsomes assessed as parent compound remaining after 15 mins. The format is ADME, Microsome. The following applies: read-out: Stability.
The nature of data set [14]: Metabolic stability in human microsomes assessed as parent compound remaining after 30 mins. To be noted: read-out: Stability. Format: ADME, Microsome.
Data set [15] in a line: Metabolic stability in rat microsomes assessed as parent compound remaining after 30 mins. Format: ADME, Microsome. The following applies: read-out: Stability.
Data set [16] can be described thus: Metabolic stability in human microsomes assessed as parent compound remaining after 45 mins. The format is ADME, Microsome. To be noted: read-out: Stability.
Data set [17] can be described thus: Metabolic stability in rat microsomes assessed as parent compound remaining after 45 mins. To be noted: read-out: Stability. Format: ADME, Microsome.
Data set [18] in a line: Clearance in human. Format: ADME.
The nature of data set [19]: Half life in rat microsomes. To be noted: in vitro.
Data set [20] in a line: Clearance in rat microsomes. To be noted: in vitro.
The target of data set [21] is Cyclin-dependent kinase 1 (Homo sapiens, UniProt P06493).
Chain of Cyclin-dependent kinase 1 (P06493 whole entry): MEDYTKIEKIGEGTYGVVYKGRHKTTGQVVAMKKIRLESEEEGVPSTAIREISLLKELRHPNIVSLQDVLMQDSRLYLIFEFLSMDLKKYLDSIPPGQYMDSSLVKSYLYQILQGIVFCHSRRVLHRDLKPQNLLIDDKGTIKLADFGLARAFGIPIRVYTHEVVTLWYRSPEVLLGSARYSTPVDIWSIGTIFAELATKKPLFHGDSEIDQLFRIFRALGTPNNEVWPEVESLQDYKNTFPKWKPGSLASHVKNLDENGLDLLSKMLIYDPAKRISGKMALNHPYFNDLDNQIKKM
Description: Inhibition of CDK1 (unknown origin)
For the next data set, the target named is CDK2/Cyclin A2 (Homo sapiens, UniProt P24941). Put plainly: Inhibition of CDK2/CyclinA (unknown origin) assessed as reduction in TAMRA tagged peptide substrate phosphorylation by fluorescence polarization assay. The format is protein-complex assay. A general note: Fluorescence polarisation rises when a labelled molecule tumbles more slowly, as on binding a larger partner.

Data set [22] in a line: Tmax in human. The format is ADME.
A short description of data set [23]: Protein binding in human plasma. Format: ADME, cell-free. To be noted: read-out: PPB (converted).
Data set [24] deals with Homeodomain-interacting protein kinase 1 (Homo sapiens, UniProt Q86Z02). Put plainly: Inhibition of wild-type human partial length HIPK1 (M146 to I555 residues) expressed in mammalian expression system assessed as residual activity at 50 nM by Kinomescan method relative to control.
Chain of Homeodomain-interacting protein kinase 1 (Q86Z02 whole entry, the tested form may be a part): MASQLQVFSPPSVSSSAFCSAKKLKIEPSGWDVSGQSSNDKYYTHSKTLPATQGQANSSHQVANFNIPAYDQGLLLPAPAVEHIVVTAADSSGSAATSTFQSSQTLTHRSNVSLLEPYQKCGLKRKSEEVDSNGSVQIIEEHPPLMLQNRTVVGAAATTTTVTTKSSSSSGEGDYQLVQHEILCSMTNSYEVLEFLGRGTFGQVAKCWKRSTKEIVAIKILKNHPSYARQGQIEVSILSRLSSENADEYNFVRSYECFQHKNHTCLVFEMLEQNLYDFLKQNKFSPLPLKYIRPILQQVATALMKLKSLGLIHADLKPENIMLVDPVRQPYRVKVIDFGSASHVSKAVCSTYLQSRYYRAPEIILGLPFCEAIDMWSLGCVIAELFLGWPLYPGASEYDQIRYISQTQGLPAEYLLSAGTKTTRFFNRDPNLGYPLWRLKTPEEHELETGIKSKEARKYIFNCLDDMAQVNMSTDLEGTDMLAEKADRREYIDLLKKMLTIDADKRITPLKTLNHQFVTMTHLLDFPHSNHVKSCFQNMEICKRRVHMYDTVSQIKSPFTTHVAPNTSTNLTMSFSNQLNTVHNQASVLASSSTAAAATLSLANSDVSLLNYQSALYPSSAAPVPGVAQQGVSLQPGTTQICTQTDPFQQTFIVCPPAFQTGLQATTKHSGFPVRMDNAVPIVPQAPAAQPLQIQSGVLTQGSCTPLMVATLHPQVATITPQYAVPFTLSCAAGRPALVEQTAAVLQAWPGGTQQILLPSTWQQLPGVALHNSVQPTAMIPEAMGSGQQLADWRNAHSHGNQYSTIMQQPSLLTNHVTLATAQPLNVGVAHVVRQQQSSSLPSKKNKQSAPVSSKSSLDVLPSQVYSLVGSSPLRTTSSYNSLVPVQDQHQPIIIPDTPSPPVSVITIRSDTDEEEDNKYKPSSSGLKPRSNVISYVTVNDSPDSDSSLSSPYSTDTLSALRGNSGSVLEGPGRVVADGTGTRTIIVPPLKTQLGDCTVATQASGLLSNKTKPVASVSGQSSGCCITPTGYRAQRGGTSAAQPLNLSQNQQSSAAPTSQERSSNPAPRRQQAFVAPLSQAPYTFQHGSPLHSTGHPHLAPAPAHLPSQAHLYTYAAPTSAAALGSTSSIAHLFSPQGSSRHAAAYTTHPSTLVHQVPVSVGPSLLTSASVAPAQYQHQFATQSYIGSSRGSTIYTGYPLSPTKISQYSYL
Data set [25] deals with Calcium/calmodulin-dependent protein kinase type 1 (Homo sapiens, UniProt Q14012). Put plainly: Inhibition of wild-type human full length CAMK1A (M1 to L370 residues) expressed in bacterial expression system assessed as residual activity at 50 nM by Kinomescan method relative to control.
Chain of Calcium/calmodulin-dependent protein kinase type 1 (Q14012 whole entry, the tested form may be a part): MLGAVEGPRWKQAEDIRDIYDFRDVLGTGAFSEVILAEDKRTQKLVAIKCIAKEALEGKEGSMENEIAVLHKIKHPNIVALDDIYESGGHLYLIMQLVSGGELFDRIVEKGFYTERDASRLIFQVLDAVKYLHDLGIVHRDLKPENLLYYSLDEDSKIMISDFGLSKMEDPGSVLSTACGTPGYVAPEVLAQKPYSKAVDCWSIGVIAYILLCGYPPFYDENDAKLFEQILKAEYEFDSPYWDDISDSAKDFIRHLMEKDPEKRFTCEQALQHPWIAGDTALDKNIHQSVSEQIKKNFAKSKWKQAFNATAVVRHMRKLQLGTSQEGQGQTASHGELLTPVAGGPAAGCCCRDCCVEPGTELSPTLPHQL
A short description of data set [26]: Oral bioavailability in human at 125 mg. The format is ADME, organism-based. To be noted: in vivo.
Data set [27] can be described thus: Tmax in human at 125 mg, po. The format is ADME. The following applies: in vivo.
The nature of data set [28]: Protein binding in human plasma at 125 mg, po. Format: ADME, cell-free. The following applies: read-out: PPB (converted).

Each structure is given as a SMILES string. pIC50, pKi: −log10 of the molar value.

By AUC is commonly meant concentration integrated over time. Higher therefore signals high exposure. As usually defined, the half-life is the time needed for the level to fall by half in the phase considered. Read a low half-life as fast loss. One may read the Tmax as the time at which the peak concentration occurs. For orientation: pIC50 means the negative decadic logarithm of the IC50, by convention in mol/L. What is called pKi is the negative decadic logarithm of the Ki, by convention in mol/L. A word on the bioavailability: it is dose-corrected exposure relative to a reference, in per cent. One may read the AUC(0-t) as the area under the concentration-time curve up to a stated or last time point. Read a high AUC(0-t) as more exposure.

Regarding `[2H]C([2H])([2H])N(C(=O)c1cc2cnc(Nc3ccc(N4CCNCC4)cn3)nc2n1C1CCCC1)C([2H])([2H])[2H]`, the results for the area under the curve (AUC) in data set [1] (7 h) and in data set [5] were 0.883 µM·h and 5.432 µM·h, respectively. This compound returned a clearance in [2] of 37 mL/min/kg. Moreover, the Vd in [3] was 8.6 L/kg. In [4], this compound had a half-life of 3.2 h. Further, the Tmax in [6] turned out to be 2 h. In data set [7], this compound returned an F of 55%.
On to `[2H]C([2H])([2H])C([2H])([2H])N1C([2H])([2H])C([2H])([2H])N(Cc2ccc(Nc3ncc(F)c(-c4cc(F)c5nc(C)n(C(C)C)c5c4)n3)nc2)C([2H])([2H])C1([2H])[2H]`, for which the remaining at 0 h in [8] and in data set [9] was 100% each time. Besides, the remaining at 5 min in [10] was determined as 80.3%; in data set [11], 92.2%. Besides, the remaining at 0.25 h was 47.9% in data set [12] and 86% in data set [13]. Moreover, the results for the remaining at 0.5 h in [14] and in data set [15] were 21.3% and 69.9%, respectively. Moreover, the remaining at 0.75 h in data set [16] is 9.86%; in [17], 57.6%. In addition, the clearance in [18] turned out to be 130 mL/min/kg; in [20], 43.3 mL/min/kg. Also, in data set [19], the half-life was 0.956 h.
Consider `[2H]c1nc(Nc2ncc(F)c(-c3cc(F)c4nc(C)n(C(C)C)c4c3)n2)c([2H])c([2H])c1CN1CCN(C([2H])([2H])C([2H])([2H])[2H])CC1`, for which the remaining at 0 h in [8] and in data set [9] was 100% throughout. Further, the figures for the remaining at 5 min in data set [10] and in data set [11] were 79.4% and 92.7%, respectively. Moreover, the remaining at 0.25 h in data set [12] was 43.3%; in data set [13], 83%. Further, the values for the remaining at 0.5 h in [14] and in data set [15] were 16.4% and 65.9%, respectively. The remaining at 0.75 h in [16] came out at 6.48%; in [17] it was 51.3%. In addition, the clearance in data set [18] was 155 mL/min/kg; in [20], 52.7 mL/min/kg. Moreover, the half-life in [19] amounted to 0.785 h.
In the case of `[2H]C([2H])([2H])C([2H])([2H])N1CCN(Cc2ccc(Nc3ncc(F)c(-c4cc(F)c5nc(C)n(C(C)C)c5c4)n3)nc2)CC1`, the remaining at 0 h in data set [8] and in [9] was 100% in each case. The remaining at 5 min in data set [10] was 77.7%; in data set [11] it was 93.8%. Also, the remaining at 0.25 h in data set [12] was 42.4%; in [13] it was 83.4%. For the same compound, the remaining at 0.5 h in [14] was 16%; in data set [15], 66.9%. In addition, the remaining at 0.75 h in data set [16] was found to be 6.21%; in [17], 51.3%. Moreover, the clearance in data set [18] was determined as 156 mL/min/kg; in [20] it was 52.8 mL/min/kg. In data set [19], this compound gave a half-life of 0.784 h.
Regarding `CN(C)C(=O)c1cc2cnc(Nc3ccc(N4CCNCC4)cc3)nc2n1C1CCCC1`, the pIC50 in data set [21] is below 5.80; on CDK2/Cyclin A2, below 5.85.
As to `CCN1CCN(Cc2ccc(Nc3ncc(F)c(-c4cc(F)c5nc(C)n(C(C)C)c5c4)n3)nc2)CC1` [ABEMACICLIB], the Tmax in data set [22] is 4 to 24 h. Moreover, in data set [23], the fraction unbound is 0.04. Besides, the pKi in data set [24] and in data set [25] was above 8.00 each time. Also, the remaining at 0 h in [8] and in data set [9] was 100% in each case. Further, the figures for the remaining at 5 min in [10] and in [11] were 76.1% and 94.1%, respectively. Further, the remaining at 0.25 h in data set [12] was determined as 38.9%; in data set [13], 81%. Moreover, the results for the remaining at 0.5 h in [14] and in data set [15] were 13% and 61.6%, respectively. The remaining at 0.75 h in data set [16] turned out to be 4.76%; in [17], 45.6%. Further, the clearance was found to be 172 mL/min/kg in data set [18] and 62.9 mL/min/kg in [20]. The same compound displayed a half-life in data set [19] of 0.658 h.
For `CC(=O)c1c(C)c2cnc(Nc3ccc(N4CCNCC4)cn3)nc2n(C2CCCC2)c1=O` [PALBOCICLIB], in data set [26], the bioavailability amounted to 46%. The Tmax in data set [27] was in the range of 6 to 12 h. The fraction unbound in data set [28] is 0.15.
On to `CN(C)C(=O)c1cc2cnc(Nc3ccc(N4CCNCC4)cn3)nc2n1C1CCCC1` [RIBOCICLIB], for which the Tmax is 1 to 4 h in [22] and 1.5 h in [6]. Further, in [23], the fraction unbound is 0.3. In data set [1] (Sprague-Dawley), the AUC(0-t) at 7 h was determined as 1.03 µM·h. The compound further had a half-life in data set [4] of 2.3 h. Further, in [5], the AUC was determined as 1.618 µM·h.
